In publication PMC9613470, “Diverse MarR bacterial regulators of auxin catabolism in the plant microbiome” (Nature Microbiology, 2022):
Entries after “also recorded” stand apart in the source; their conditions may differ. Where two headings read alike, the source gives them in different places.

Tests used:
[1] = target: Variovorax paradoxus CL14 MarR_50; assay: ITC IAA binding to MarR_50 (IadR2); details: 25 °C, IadR2 (MarR_50-like)
Experimental: (§1) The coding sequence for each gene can be found in Supplementary Table 10. MarR expression plasmids were synthesized as codon-optimized genes for E. coli expression by BioBasic in the pLIC-His N-term vector (pMCSG7) and transformed into E. coli BL21 (DE3) Gold cells for expression. […] At an OD600 of 0.8, protein expression was induced by the addition of 0.1 mM IPTG and incubation continued overnight. Cells were collected by centrifugation at 4,500 × g for 20 min at 4 °C in a Sorvall (model RC-3B) swinging bucket centrifuge. Cell pellets were resuspended in buffer A (20 mM potassium phosphate, pH 7.4, 50 mM imidazole, 500 mM NaCl), DNase, lysozyme and a Roche Complete EDTA-free protease inhibitor tablet. Resuspended cells were sonicated and clarified via centrifugation at 17,000 × g for 60 min in a Sorvall (model RC-5B) swinging bucket centrifuge. The lysate was applied to a nickel-nitrilotriacetic acid HP column (GE Healthcare) on an Aktaxpress Fast Performance Liquid Chromatography (FPLC) system (Amersham Bioscience) and washed with buffer A. Protein was eluted with buffer B (20 mM potassium phosphate, pH 7.4, 500 mM imidazole, 500 mM NaCl). Fractions containing the protein of interest were combined and passed over a HiLoadTM 16/60 SuperdexTM 200 gel filtration column. Proteins were eluted in S200 buffer (20 mM HEPES, pH 7.4, 300 mM NaCl). […]

[2] = target: Bradyrhizobium japonicum MarR_Bj2; assay: ITC IAA binding to MarR_Bj2; details: 25 °C, IadR2 (MarR_50-like)
Experimental: as §1

[3] = target: Ruegaria pomeroyi MarR_3CDH (Ruegeria pomeroyi, UniProt Q5LTG1); assay: ITC IAA binding to MarR_3CDH; details: 25 °C, IadR (MarR_73-like)
Chain of Ruegaria pomeroyi MarR_3CDH (Q5LTG1 entry or part of it): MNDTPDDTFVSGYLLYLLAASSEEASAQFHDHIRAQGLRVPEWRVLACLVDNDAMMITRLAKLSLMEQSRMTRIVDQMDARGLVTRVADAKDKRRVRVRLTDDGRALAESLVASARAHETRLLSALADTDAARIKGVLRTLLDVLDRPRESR
Experimental: The coding sequence for each gene can be found in Supplementary Table 10. MarR expression plasmids were synthesized as codon-optimized genes for E. coli expression by BioBasic in the pLIC-His N-term vector (pMCSG7) and transformed into E. coli BL21 (DE3) Gold cells for expression. […] At an OD600 of 0.8, protein expression was induced by the addition of 0.1 mM IPTG and incubation continued overnight. Cells were collected by centrifugation at 4,500 × g for 20 min at 4 °C in a Sorvall (model RC-3B) swinging bucket centrifuge. Cell pellets were resuspended in buffer A (20 mM potassium phosphate, pH 7.4, 50 mM imidazole, 500 mM NaCl), DNase, lysozyme and a Roche Complete EDTA-free protease inhibitor tablet. Resuspended cells were sonicated and clarified via centrifugation at 17,000 × g for 60 min in a Sorvall (model RC-5B) swinging bucket centrifuge. The lysate was applied to a nickel-nitrilotriacetic acid HP column (GE Healthcare) on an Aktaxpress Fast Performance Liquid Chromatography (FPLC) system (Amersham Bioscience) and washed with buffer A. Protein was eluted with buffer B (20 mM potassium phosphate, pH 7.4, 500 mM imidazole, 500 mM NaCl). Fractions containing the protein of interest were combined and passed over a HiLoadTM 16/60 SuperdexTM 200 gel filtration column. Proteins were eluted in S200 buffer (20 mM HEPES, pH 7.4, 300 mM NaCl). Fractions were combined and concentrated for long-term storage at −80 °C.
All ITC measurements were performed at 25 °C using an Auto-ITC200 microcalorimeter (MicroCal/GE Healthcare). The buffer employed was 20 mM HEPES, pH 7.4, 50 mM NaCl and 0.5% dimethly sulfoxide (DMSO) for protein/ligand binding and 20 mM HEPES, pH 7.4 and 300 mM NaCl for DNA/protein binding experiments. For ligand binding experiments, the calorimetry cell (volume […]) was loaded with MarR wild-type, mutant or homologue protein at a concentration of 50 μM. The syringe was loaded with a ligand concentration of 0.5 or 2 mM. […] A typical injection protocol included a single 0.2 μl first injection followed by 20 1.5 μl injections of the syringe sample into the calorimetry cell. The spacing between injections was kept at 180 s and the reference power at 8 μcal s^−1. […] Two independent ITC measurements were performed for each condition.

[4] = target: Acinetobacter baumannii MarR_Ab (Acinetobacter baumannii, UniProt A0ABX6CGA9); assay: ITC IAA binding to MarR_Ab
Experimental: as §1

MarR_73 S28A R46A = MarR_73 S28A R46A (Variovorax paradoxus, UniProt C5CSP2, R46A/S28A); details: ITC, 25 °C; mutant S28A R46A
Chain of MarR_73 S28A R46A (C5CSP2 1-158, stated change not applied): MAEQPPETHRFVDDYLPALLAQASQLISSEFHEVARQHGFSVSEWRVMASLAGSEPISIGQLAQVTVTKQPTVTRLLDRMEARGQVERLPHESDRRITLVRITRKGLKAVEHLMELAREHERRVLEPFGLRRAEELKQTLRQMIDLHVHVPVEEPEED
Experimental: as §1

[5] = tested on: A. thaliana ecotype Col-0; assay: Root growth inhibition assay (primary root elongation); assay type: in vivo, Arabidopsis thaliana; details: Arabidopsis seedlings with IAA alone, 1 µM IAA
Experimental: A. thaliana ecotype Col-0 seeds were sterilized in 70% household bleach, 0.2% Tween-20 for 10 min with vigorous agitation and then rinsed 10 times with sterile distilled water. Seeds were stratified at 4 °C in sterile distilled water for 1–2 d. […] Then 8 to 10 plants were aseptically transferred to 12 ×12 cm plates containing 0.5x MS agar medium without sucrose where the medium surface was spread with the bacterial inoculum. […] The plant root tip location was marked on plates after transfer to record the initial root tip position. […] Plates were imaged on a document scanner and primary root elongation was determined using imageJ to quantify the change in root tip position from the initial to the final position.
Individual bacterial strains were grown on agar plates of the media types specified above at 28 °C. […] The optical density at 600 nm (OD600) was measured for each washed strain and normalized to OD600 of 0.01 in 10 mM MgCl2. […]
The 175-member synthetic community (SC185-10V) was prepared as described for the 185-member synthetic community used previously[14] by leaving out the 10 isolates from the genus Variovorax. […] The OD600 of the strains in each well was measured and the strains were combined while normalizing the OD600 of each strain in the pool. […] The OD600 values of the 10 cultures were measured and the 10 strains were pooled while normalizing the OD600 of each strain to the same value. […]

O=C(O)Cc1c[nH]c2ccccc12 [IAA, indole-3-acetic acid]
KD1 [1]: No Binding
KD1 [2]: did not bind; also recorded: No Binding
N1 ([3]; first site): 0.411 ± 0.012
Kd ([3]; first site, read-out: KD1): 237 ± 99 nM
N2 ([3]; second site): 0.216 ± 0.011
Kd ([3]; second site, read-out: KD2): 6 nM
Kd [4]: 1290 ± 101 nM
N1 ([4]; ITC, 25 °C, IacR): 0.911 ± 0.011
N (MarR_73 S28A R46A): 1.2 ± 0.2
root growth inhibition (RGI) phenotype [5]: severe RGI phenotype
